We go through two molecules from article PMC9731866, “Structures of a constitutively active mutant of human IDH3 reveal new insights into the mechanisms of allosteric activation and the catalytic reaction” (The Journal of Biological Chemistry, 2022).

What all share (format): binding
The target in assay [1] is T1, αβ heterodimer of HsIDH3 (mutant form αMβ) (Homo sapiens, UniProt O43837+P50213, P50213:Q166A).
T1 construct: gene IDH3A; coexpressed alpha and beta-TEV-His6 (pQlinkN), E. coli BL21(DE3) Codon-Plus, His6 tag cleaved with TEV; 1:1 heterodimer, mutant is heterotetramer (αMβ)2 of 131-149 kDa
Kind of assay: biolayer interferometry, biotinylated protein on streptavidin sensor.

Assay [2] has as its target T1, αβ heterodimer of HsIDH3 (mutant form αMβ). In words: X-ray crystal structure, […] Å. The following applies: Mg2+ at active site; ADP at pseudo-allosteric site of beta subunit.
The target of assay [3] is T2, αγ heterodimer of HsIDH3 (mutant form αMγ) (Homo sapiens, UniProt P50213+P51553, P50213:Q166A).
T2 construct: gene IDH3A; coexpressed alpha and gamma-TEV-His6 (pQlinkN), E. coli BL21(DE3) Codon-Plus, His6 tag cleaved with TEV; 1:1 heterodimer, mutant is heterotetramer (αMγ)2 of 131-149 kDa
T2 sequence (P50213 28-366 Q166A): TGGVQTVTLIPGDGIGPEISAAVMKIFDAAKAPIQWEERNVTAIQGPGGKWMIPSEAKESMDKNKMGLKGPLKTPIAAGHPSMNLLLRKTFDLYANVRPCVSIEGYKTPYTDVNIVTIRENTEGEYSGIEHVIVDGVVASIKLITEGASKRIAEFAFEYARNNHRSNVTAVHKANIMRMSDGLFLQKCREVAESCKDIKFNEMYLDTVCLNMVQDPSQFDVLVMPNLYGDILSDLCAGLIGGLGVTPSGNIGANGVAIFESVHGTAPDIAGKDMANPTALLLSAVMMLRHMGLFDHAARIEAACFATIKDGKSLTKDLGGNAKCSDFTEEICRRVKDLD
T2 sequence (P51553 40-393): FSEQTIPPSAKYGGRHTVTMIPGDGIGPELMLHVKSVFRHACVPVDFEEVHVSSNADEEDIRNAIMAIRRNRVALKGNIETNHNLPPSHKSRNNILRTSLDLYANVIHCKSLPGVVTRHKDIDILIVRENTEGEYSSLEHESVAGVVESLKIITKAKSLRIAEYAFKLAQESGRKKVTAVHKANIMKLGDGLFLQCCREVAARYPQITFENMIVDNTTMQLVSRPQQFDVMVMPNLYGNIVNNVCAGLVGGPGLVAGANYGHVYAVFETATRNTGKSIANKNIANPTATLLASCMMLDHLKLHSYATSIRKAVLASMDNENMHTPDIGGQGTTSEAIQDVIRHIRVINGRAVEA
In words: X-ray crystal structure, […] Å. The following applies: allosteric site of gamma subunit.

SMILES strings stand for the structures.

T1 sequence (O43837 35-385 limits assumed, one chain of several): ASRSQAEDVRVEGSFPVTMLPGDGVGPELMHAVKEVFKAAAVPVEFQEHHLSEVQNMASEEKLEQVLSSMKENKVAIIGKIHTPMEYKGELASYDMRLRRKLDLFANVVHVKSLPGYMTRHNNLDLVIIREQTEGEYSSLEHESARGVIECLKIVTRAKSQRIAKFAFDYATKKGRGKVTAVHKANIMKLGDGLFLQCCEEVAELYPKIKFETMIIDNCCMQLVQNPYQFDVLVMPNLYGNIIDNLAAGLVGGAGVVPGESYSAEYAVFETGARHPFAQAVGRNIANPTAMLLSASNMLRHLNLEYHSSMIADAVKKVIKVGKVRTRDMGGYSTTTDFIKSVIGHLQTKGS

In turn, `Nc1ncnc2c1ncn2[C@@H]1O[C@H](COP(=O)(O)OP(=O)(O)O)[C@@H](O)[C@H]1O` [ADP] returned a Kd in assay [1] of 522 ± 10 µM. In addition, the “X-ray crystal structure, 2.70 Å” value in assay [2] is recorded as “an ADP bound at the pseudo-allosteric site in the β subunit”. Take `O=C(O)CC(O)(CC(=O)O)C(=O)O` [CIT]: the “X-ray crystal structure, 2.50 Å” value in assay [3] is recorded as “there is a CIT bound at the allosteric site in the γ subunit”.
